Measurements from PubChem BioAssay (NCI).
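Step 1: Grow cells in 96-well plates. Step 2: Expose to compound for 48 hours at 5 concentrations. Step 3: Interpolate endpoints linearly; if unreached, use highest concentration. At the GI50, growth is halved. TGI marks complete inhibition of growth.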

What was measured:
Assay in all cases: NCI tumour cell line growth inhibition, 48 h
786-0 renal = tested on: 786-0 renal
A498 renal = tested on: A498 renal
A549 NSCLC = tested on: A549 NSCLC
ACHN renal = tested on: ACHN renal
BT-549 breast = tested on: BT-549 breast
CAKI-1 renal = tested on: CAKI-1 renal
CCRF-CEM leukemia = tested on: CCRF-CEM leukemia
COLO 205 colon = tested on: COLO 205 colon
DU-145 prostate = tested on: DU-145 prostate
EKVX NSCLC = tested on: EKVX NSCLC
HCC-2998 colon = tested on: HCC-2998 colon
HCT-116 colon = tested on: HCT-116 colon
HCT-15 colon = tested on: HCT-15 colon
HL-60(TB) leukemia = tested on: HL-60(TB) leukemia
HOP-62 NSCLC = tested on: HOP-62 NSCLC
HOP-92 NSCLC = tested on: HOP-92 NSCLC
HS 578T breast = tested on: HS 578T breast
HT29 colon = tested on: HT29 colon
K-562 leukemia = tested on: K-562 leukemia
KM12 colon = tested on: KM12 colon
LOX IMVI melanoma = tested on: LOX IMVI melanoma
M14 melanoma = tested on: M14 melanoma
MALME-3M melanoma = tested on: MALME-3M melanoma
MCF7 breast = tested on: MCF7 breast
MDA-MB-231 breast = tested on: MDA-MB-231 breast
MDA-MB-435 = tested on: MDA-MB-435
MOLT-4 leukemia = tested on: MOLT-4 leukemia
NCI-H226 lung = tested on: NCI-H226 lung
NCI-H23 lung = tested on: NCI-H23 lung
NCI-H460 lung = tested on: NCI-H460 lung
NCI-H522 lung = tested on: NCI-H522 lung
NCI/ADR-RES ovarian = tested on: NCI/ADR-RES ovarian
OVCAR-3 ovarian = tested on: OVCAR-3 ovarian
OVCAR-4 ovarian = tested on: OVCAR-4 ovarian
OVCAR-5 ovarian = tested on: OVCAR-5 ovarian
OVCAR-8 ovarian = tested on: OVCAR-8 ovarian
PC-3 prostate = tested on: PC-3 prostate
RPMI-8226 leukemia = tested on: RPMI-8226 leukemia
RXF 393 renal = tested on: RXF 393 renal
SF-268 CNS = tested on: SF-268 CNS
SF-295 CNS = tested on: SF-295 CNS
SF-539 CNS = tested on: SF-539 CNS
SK-MEL-2 melanoma = tested on: SK-MEL-2 melanoma
SK-MEL-28 melanoma = tested on: SK-MEL-28 melanoma
SK-MEL-5 melanoma = tested on: SK-MEL-5 melanoma
SK-OV-3 ovarian = tested on: SK-OV-3 ovarian
SN12C renal = tested on: SN12C renal
SNB-19 CNS = tested on: SNB-19 CNS
SNB-75 CNS = tested on: SNB-75 CNS
SR leukemia = tested on: SR leukemia
SW-620 colon = tested on: SW-620 colon
T-47D breast = tested on: T-47D breast
TK-10 renal = tested on: TK-10 renal
U251 CNS = tested on: U251 CNS
UACC-257 melanoma = tested on: UACC-257 melanoma
UACC-62 melanoma = tested on: UACC-62 melanoma
UO-31 renal = tested on: UO-31 renal

COC(=O)c1cc(-c2ccc(OC)c(OC)c2)[nH]c1N/N=C/c1c(Cl)cccc1Cl
GI50 (786-0 renal): 830 nM | TGI (786-0 renal): 4320 nM | GI50 (A498 renal): 532 nM | TGI (A498 renal): 3800 nM | GI50 (A549 NSCLC): 948 nM | TGI (A549 NSCLC): 8280 nM | GI50 (ACHN renal): 1180 nM | TGI (ACHN renal): 13200 nM | GI50 (BT-549 breast): 887 nM | TGI (BT-549 breast): 3480 nM | GI50 (CAKI-1 renal): 768 nM | TGI (CAKI-1 renal): 7100 nM | GI50 (CCRF-CEM leukemia): 406 nM | TGI (CCRF-CEM leukemia): > 100000 nM | GI50 (COLO 205 colon): 901 nM | TGI (COLO 205 colon): 4950 nM | GI50 (DU-145 prostate): 448 nM | TGI (DU-145 prostate): 1930 nM | GI50 (EKVX NSCLC): 708 nM | TGI (EKVX NSCLC): 19500 nM | GI50 (HCC-2998 colon): 265 nM | TGI (HCC-2998 colon): 1430 nM | GI50 (HCT-116 colon): 396 nM | TGI (HCT-116 colon): 2110 nM | GI50 (HCT-15 colon): 946 nM | TGI (HCT-15 colon): 24000 nM | GI50 (HL-60(TB) leukemia): 250 nM | TGI (HL-60(TB) leukemia): 531 nM | GI50 (HOP-62 NSCLC): 1170 nM | TGI (HOP-62 NSCLC): 10100 nM | GI50 (HOP-92 NSCLC): 944 nM | TGI (HOP-92 NSCLC): 5060 nM | GI50 (HS 578T breast): 523 nM | TGI (HS 578T breast): 11000 nM | GI50 (HT29 colon): 434 nM | TGI (HT29 colon): 2300 nM | GI50 (K-562 leukemia): 460 nM | TGI (K-562 leukemia): > 100000 nM | GI50 (KM12 colon): 400 nM | TGI (KM12 colon): 9690 nM | GI50 (LOX IMVI melanoma): 837 nM | TGI (LOX IMVI melanoma): 13000 nM | GI50 (M14 melanoma): 523 nM | TGI (M14 melanoma): 5200 nM | GI50 (MALME-3M melanoma): 860 nM | TGI (MALME-3M melanoma): 31800 nM | GI50 (MCF7 breast): 301 nM | TGI (MCF7 breast): 1440 nM | GI50 (MDA-MB-231 breast): 1310 nM | TGI (MDA-MB-231 breast): 5030 nM | GI50 (MDA-MB-435): 127 nM | TGI (MDA-MB-435): 562 nM | GI50 (MOLT-4 leukemia): 680 nM | TGI (MOLT-4 leukemia): > 100000 nM | GI50 (NCI-H226 lung): 1900 nM | TGI (NCI-H226 lung): > 51300 nM | GI50 (NCI-H23 lung): 848 nM | TGI (NCI-H23 lung): 13000 nM | GI50 (NCI-H460 lung): 379 nM | TGI (NCI-H460 lung): 1850 nM | GI50 (NCI-H522 lung): 502 nM | TGI (NCI-H522 lung): 2510 nM | GI50 (NCI/ADR-RES ovarian): 557 nM | TGI (NCI/ADR-RES ovarian): 9010 nM | GI50 (OVCAR-3 ovarian): 366 nM | TGI (OVCAR-3 ovarian): 1870 nM | GI50 (OVCAR-4 ovarian): 1670 nM | TGI (OVCAR-4 ovarian): 12100 nM | GI50 (OVCAR-5 ovarian): 1910 nM | TGI (OVCAR-5 ovarian): 7420 nM | GI50 (OVCAR-8 ovarian): 1310 nM | TGI (OVCAR-8 ovarian): 8670 nM | GI50 (PC-3 prostate): 538 nM | GI50 (RPMI-8226 leukemia): 531 nM | TGI (RPMI-8226 leukemia): > 100000 nM | GI50 (RXF 393 renal): 132 nM | TGI (RXF 393 renal): 933 nM | GI50 (SF-268 CNS): 705 nM | TGI (SF-268 CNS): 6270 nM | GI50 (SF-295 CNS): 257 nM | TGI (SF-295 CNS): 2070 nM | GI50 (SF-539 CNS): 317 nM | TGI (SF-539 CNS): 1020 nM | GI50 (SK-MEL-2 melanoma): 832 nM | TGI (SK-MEL-2 melanoma): 7140 nM | GI50 (SK-MEL-28 melanoma): 970 nM | TGI (SK-MEL-28 melanoma): 71200 nM | GI50 (SK-MEL-5 melanoma): 387 nM | TGI (SK-MEL-5 melanoma): 4560 nM | GI50 (SK-OV-3 ovarian): 567 nM | TGI (SK-OV-3 ovarian): 2660 nM | GI50 (SN12C renal): 969 nM | TGI (SN12C renal): 18800 nM | GI50 (SNB-19 CNS): 673 nM | TGI (SNB-19 CNS): 6980 nM | GI50 (SNB-75 CNS): 379 nM | TGI (SNB-75 CNS): 2210 nM | GI50 (SR leukemia): 394 nM | TGI (SR leukemia): > 100000 nM | GI50 (SW-620 colon): 443 nM | TGI (SW-620 colon): 12700 nM | GI50 (T-47D breast): 3990 nM | TGI (T-47D breast): 92500 nM | GI50 (TK-10 renal): 1640 nM | TGI (TK-10 renal): 9470 nM | GI50 (U251 CNS): 671 nM | TGI (U251 CNS): 2430 nM | GI50 (UACC-257 melanoma): 723 nM | TGI (UACC-257 melanoma): > 23100 nM | GI50 (UACC-62 melanoma): 552 nM | TGI (UACC-62 melanoma): 11200 nM | GI50 (UO-31 renal): 834 nM | TGI (UO-31 renal): 3250 nM
